Assay results as given in patent US20050197338A1, “Substituted pyrazole urea compounds for the treatment of inflammation” (priority 2003, published 2005).

target: T1, human IKK-2 (rhIKK-2 homodimer) (Homo sapiens, UniProt O14920); experiment: IKK-2 Resin Enzyme Assay (Human IKK-2 Enzyme Assay); format: biochemical; conditions: not given
T1 construct: FLAG (DYKDDDDKD) (C); made in house; host or cells: insect cells (baculovirus, pFastBac)
T1 sequence (O14920 1-756): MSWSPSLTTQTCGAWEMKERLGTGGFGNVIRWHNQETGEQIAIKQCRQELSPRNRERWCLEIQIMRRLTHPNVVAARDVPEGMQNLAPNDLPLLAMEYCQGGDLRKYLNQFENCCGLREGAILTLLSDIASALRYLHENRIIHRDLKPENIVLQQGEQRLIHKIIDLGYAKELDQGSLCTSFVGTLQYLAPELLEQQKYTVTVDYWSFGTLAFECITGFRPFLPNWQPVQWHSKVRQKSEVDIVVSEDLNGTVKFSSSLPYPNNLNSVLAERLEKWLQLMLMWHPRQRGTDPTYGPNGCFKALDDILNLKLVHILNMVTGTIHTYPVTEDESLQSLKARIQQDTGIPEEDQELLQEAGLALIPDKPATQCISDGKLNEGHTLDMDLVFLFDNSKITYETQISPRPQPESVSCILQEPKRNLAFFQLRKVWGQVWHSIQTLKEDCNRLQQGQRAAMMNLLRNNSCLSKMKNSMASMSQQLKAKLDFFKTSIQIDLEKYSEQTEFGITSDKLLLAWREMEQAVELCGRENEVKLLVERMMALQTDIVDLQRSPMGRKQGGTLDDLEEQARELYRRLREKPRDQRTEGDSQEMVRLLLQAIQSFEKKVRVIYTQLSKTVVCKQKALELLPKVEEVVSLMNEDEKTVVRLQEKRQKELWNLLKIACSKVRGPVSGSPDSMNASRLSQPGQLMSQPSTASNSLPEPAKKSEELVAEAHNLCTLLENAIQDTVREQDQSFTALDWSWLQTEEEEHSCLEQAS
Procedure, shortened: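 C-terminally FLAG-tagged human IKK-2 homodimer, baculovirus-expressed in insect cells and anti-FLAG purified. Reaction mix: 5 μM biotinylated IκBα peptide (Ser32/Ser36 region), 1 μM ATP with [γ-33P]ATP, 2 mM MgCl2, 2 mM MnCl2, 10 mM NaF, 1 mM DTT, 25 mM HEPES pH 7.6. Incubated 30 min at 25 °C; IC50 derived.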

Row | SMILES | IC50
1 | NC(=O)Nc1cn(-c2cccc(-c3ccc(C(=O)N4CCC(=O)CC4)cc3)c2)nc1C(N)=O [Example 90, 4-[(aminocarbonyl)amino]-1-{4′-[(4-oxopiperidin-1-yl)carbonyl]-1,1′-biphenyl-3-yl}-1H-pyrazole-3-carboxamide] | 2.81 µM

same assay, conditions: human IKK-2, resin enzyme assay; read-out: IC50 (μM) hIKK-2

Row | SMILES | IC50
2 | CCN(CC)C(=O)CCc1cccc(-c2ccc(-n3cc(NC(N)=O)c(C(N)=O)n3)cc2)c1 [Example 382, 4-[(aminocarbonyl)amino]-1-{3′-[3-(diethylamino)-3-oxopropyl]-1,1′-biphenyl-4-yl}-1H-pyrazole-3-carboxamide] | 0.9 µM
3 | NC(=O)Nc1cn(-c2ccc(Sc3ccc(O)cc3)cc2)nc1C(N)=O [Example 199, 1-(1-(4-(4-hydroxyphenylthio)phenyl)-3-carbamoyl-1H-pyrazol-4-yl)urea] | 6.56 µM
4 | NC(=O)Nc1cn(-c2ccc(-c3ccc(C(=O)NCc4ccc(F)cc4)c(F)c3)cc2)nc1C(N)=O [Example 155, 4-[(aminocarbonyl)amino]-1-(3′-fluoro-4′-{[(4-fluorobenzyl)amino]carbonyl}-1,1′-biphenyl-4-yl)-1H-pyrazole-3-carboxamide] | 0.45 µM
5 | CSc1ccccc1-c1cccc(-n2cc(NC(N)=O)c(C(N)=O)n2)c1 [Example 356, 4-[(aminocarbonyl)amino]-1-[2′-(methylthio)-1,1′-biphenyl-3-yl]-1H-pyrazole-3-carboxamide] | > 20 µM
6 | NC(=O)Nc1cn(-c2ccc(Sc3ccccc3F)c(Cl)c2)nc1C(N)=O [Example 270, 4-[(aminocarbonyl)amino]-1-{3-chloro-4-[(2-fluorophenyl)thio]phenyl}-1H-pyrazole-3-carboxamide] | 3.7 µM
7 | CCCCCc1ccc(-c2ccc(-n3cc(C(N)=O)c(NC(N)=O)n3)cc2)cc1 [Example 138] | > 20 µM
8 | CCOC(=O)c1ccc(-c2ccc(-n3cc(NC(N)=O)c(C(N)=O)n3)cc2)cc1 [Example 147, ethyl 4′-{3-(aminocarbonyl)-4-[(aminocarbonyl)amino]-1H-pyrazol-1-yl}-1,1′-biphenyl-4-carboxylate] | 6.01 µM
9 | NC(=O)Nc1nn(-c2ccc(-c3ccc(C(F)(F)F)cc3)cc2)cc1C(N)=O [Example 132] | 18.8 µM
10 | NC(=O)Nc1nn(-c2ccc(-c3ccc4ccccc4c3)cc2)cc1C(N)=O [Example 123] | > 20 µM
11 | N#CCCNC(=O)c1ccc(-c2cccc(-n3cc(NC(N)=O)c(C(N)=O)n3)c2)cc1 [Example 84, 4-[(aminocarbonyl)amino]-1-(4′-{[(2-cyanoethyl)amino]carbonyl}-1,1′-biphenyl-3-yl)-1H-pyrazole-3-carboxamide] | 2.06 µM
12 | NC(=O)Nc1cn(-c2ccc([S+]([O-])c3ccccn3)cc2)nc1C(N)=O (centres unmarked) [Example 284, 1-(3-carbamoyl-1-(4-(pyridin-2-ylsulfinyl)phenyl)-1H-pyrazol-4-yl)urea] | 0.986 µM
13 | N#CCc1cccc(-c2ccc(-n3cc(NC(N)=O)c(C(N)=O)n3)cc2)c1 [Example 27, 4-[(aminocarbonyl)amino]-1-[3′-(cyanomethyl)-1,1′-biphenyl-4-yl]-1H-pyrazole-3-carboxamide] | 1.36 µM
14 | CC(C)c1cccc(-c2cccc(-n3cc(NC(N)=O)c(C(N)=O)n3)c2)c1 [Example 352, 4-[(aminocarbonyl)amino]-1-(3′-isopropyl-1,1′-biphenyl-3-yl)-1H-pyrazole-3-carboxamide] | > 20 µM
15 | NC(=O)Nc1cn(-c2ccc([S+]([O-])c3cccc(F)c3)cc2)nc1C(N)=O (centres unmarked) [Example 201, 1-(1-(4-(3-fluorophenylsulfinyl)phenyl)-3-carbamoyl-1H-pyrazol-4-yl)urea] | 0.532 µM
16 | NCc1cccc(-c2ccc(-n3cc(NC(N)=O)c(C(N)=O)n3)cc2)c1 [Example 28, 4-[(aminocarbonyl)amino]-1-[3′-(aminomethyl)-1,1′-biphenyl-4-yl]-1H-pyrazole-3-carboxamide] | 2.79 µM
17 | COc1ccc(-c2cccc(-n3cc(NC(N)=O)c(C(N)=O)n3)c2)cc1 [Example 344, 4-[(aminocarbonyl)amino]-1-(4′-methoxy-1,1′-biphenyl-3-yl)-1H-pyrazole-3-carboxamide] | > 20 µM
18 | Cc1cc(-n2cc(NC(N)=O)c(C(N)=O)n2)ccc1-c1cc(F)ccc1O [Example 242, 1-(5′-Fluoro-2′-hydroxy-2-methyl-biphenyl-4-yl)-4-ureido-1H-pyrazole-3-carboxylic acid amide] | 1.35 µM

Row | SMILES | IC50
19 | Cc1cc(Sc2ccc(F)cc2)ccc1-n1cc(NC(N)=O)c(C(N)=O)n1 [Example 228, 4-[(aminocarbonyl)amino]-1-{4-[(4-fluorophenyl)thio]-2-methylphenyl}-1H-pyrazole-3-carboxamide] | > 20 µM
20 | CSc1ccc(-c2cccc(-n3cc(NC(N)=O)c(C(N)=O)n3)c2)cc1 [Example 358, 4-[(aminocarbonyl)amino]-1-[4′-(methylthio)-1,1′-biphenyl-3-yl]-1H-pyrazole-3-carboxamide] | 8.57 µM
21 | NC(=O)Nc1cn(-c2ccc(Sc3ccc(F)cc3)c(Cl)c2)nc1C(N)=O [Example 221, 4-[(aminocarbonyl)amino]-1-{3-chloro-4-[(4-fluorophenyl)thio]phenyl}-1H-pyrazole-3-carboxamide] | 2.6 µM
22 | NC(=O)Nc1cn(-c2ccc(S(=O)(=O)c3cccc(F)c3)cc2)nc1C(N)=O [Example 203, 1-(1-(4-(3-fluorophenylsulfonyl)phenyl)-3-carbamoyl-1H-pyrazol-4-yl)urea] | 0.153 µM
23 | Cc1cc(S(=O)(=O)c2ccc(F)cc2)ccc1-n1cc(NC(N)=O)c(C(N)=O)n1 [Example 229, 4-[(aminocarbonyl)amino]-1-{4-[(4-fluorophenyl)sulfonyl]-2-methylphenyl}-1H-pyrazole-3-carboxamide] | 2.19 µM
24 | COc1cccc(-c2ccc(-n3cc(NC(N)=O)c(C(N)=O)n3)cc2)c1F [Example 120, 4-[(aminooarbonyl)amino]-1-(2′-fluoro-3′-methoxy-1,1′-biphenyl-4-yl)-1H-pyrazole-3-carboxamide] | 0.972 µM
25 | NC(=O)CCc1cccc(-c2ccc(-n3cc(NC(N)=O)c(C(N)=O)n3)cc2)c1 [Example 338, 4-[(aminocarbonyl)amino]-1-[3′-(3-amino-3-oxopropyl)-1,1′-biphenyl-4-yl]-1H-pyrazole-3-carboxamide] | 0.62 µM
26 | NC(=O)Nc1cn(-c2ccc(Cl)cc2)nc1C(N)=O [Example 214, 4-[(aminocarbonyl)amino]-1-(4-chlorophenyl)-1H-pyrazole-3-carboxamide] | 0.382 µM
27 | NC(=O)Nc1cn(-c2ccc(S(=O)(=O)c3ccc(F)cc3)cc2Cl)nc1C(N)=O [Example 377, 1-(1-(4-(4-fluorophenylsulfonyl)-2-chlorophenyl)-3-carbamoyl-1H-pyrazol-4-yl)urea] | 0.113 µM
28 | NC(=O)Nc1cn(-c2ccc(-c3cccc(OCc4ccccn4)c3)cc2)nc1C(N)=O [Example 168, 4-[(aminocarbonyl)amino]-1-[3′-(pyridin-2-ylmethoxy)-1,1′-biphenyl-4-yl]-1H-pyrazole-3-carboxamide] | 1.99 µM
29 | NC(=O)Nc1cn(-c2ccc(-c3cccc(OCc4cccnc4)c3)cc2)nc1C(N)=O [Example 170, 4-[(aminocarbonyl)amino]-1-[3′-(pyridin-3-ylmethoxy)-1,1′-biphenyl-4-yl]-1H-pyrazole-3-carboxamide] | 1.58 µM
30 | NC(=O)Nc1cn(-c2cccc(-c3ccc(C(F)(F)F)cc3)c2)nc1C(N)=O [Example 368, 4-[(aminocarbonyl)amino]-1-[4′-(trifluoromethyl)-1,1′-biphenyl-3-yl]-1H-pyrazole-3-carboxamide] | > 20 µM
31 | CN(C)C(=O)COc1cccc(-c2ccc(-n3cc(NC(N)=O)c(C(N)=O)n3)cc2)c1 [Example 181, 4-[(aminocarbonyl)amino]-1-{3′-[2-(dimethylamino)-2-oxoethoxy]-1,1′-biphenyl-4-yl}-1H-pyrazole-3-carboxamide] | 0.105 µM
32 | CSc1ccc(-c2ccc(-n3cc(C(N)=O)c(NC(N)=O)n3)cc2)cc1 [Example 119] | 0.664 µM
33 | NC(=O)c1nn(-c2cccc(Br)c2)cc1NC(N)=S [Example 12, 4-[(aminocarbonothioyl)amino]-1-(3-bromophenyl)-1H-pyrazole-3-carboxamide] | 1.43 µM
34 | N#CCOc1cccc(-c2ccc(-n3cc(NC(N)=O)c(C(N)=O)n3)cc2F)c1 [Example 227, 4-[(aminocarbonyl)amino]-1-[3′-(cyanomethoxy)-2-fluoro-1,1′-biphenyl-4-yl]-1H-pyrazole-3-carboxamide] | 1.53 µM
35 | CC(C)(C)OC(=O)COc1ccc(F)cc1-c1ccc(-n2cc(NC(N)=O)c(C(N)=O)n2)cc1 [Example 182, tert-butyl [(4′-{3-(aminocarbonyl)-4-[(aminocarbonyl)amino]-1H-pyrazol-1-yl}-5-fluoro-1,1′-biphenyl-2-yl)oxy]acetate] | 11.2 µM
